Experimental data taken from PubChem BioAssay (NCI).
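All cell lines were grown in 96-well plates and treated with compound for 48 hours. TGI is the concentration that stops growth completely.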

Experiments:
Assay in all cases: NCI anticancer screen, dose series, 48 h
[1] = tested on: 786-0 renal
[2] = tested on: A498 renal
[3] = tested on: A549 NSCLC
[4] = tested on: ACHN renal
[5] = tested on: BT-549 breast
[6] = tested on: CAKI-1 renal
[7] = tested on: CCRF-CEM leukemia
[8] = tested on: COLO 205 colon
[9] = tested on: DU-145 prostate
[10] = tested on: EKVX NSCLC
[11] = tested on: HCC-2998 colon
[12] = tested on: HCT-116 colon
[13] = tested on: HCT-15 colon
[14] = tested on: HL-60(TB) leukemia
[15] = tested on: HOP-62 NSCLC
[16] = tested on: HOP-92 NSCLC
[17] = tested on: HS 578T breast
[18] = tested on: HT29 colon
[19] = tested on: IGROV1 ovarian
[20] = tested on: K-562 leukemia
[21] = tested on: KM12 colon
[22] = tested on: LOX IMVI melanoma
[23] = tested on: M14 melanoma
[24] = tested on: MALME-3M melanoma
[25] = tested on: MCF7 breast
[26] = tested on: MDA-MB-231 breast
[27] = tested on: MDA-MB-435
[28] = tested on: MDA-N
[29] = tested on: MOLT-4 leukemia
[30] = tested on: NCI-H226 lung
[31] = tested on: NCI-H23 lung
[32] = tested on: NCI-H460 lung
[33] = tested on: NCI-H522 lung
[34] = tested on: NCI/ADR-RES ovarian
[35] = tested on: OVCAR-3 ovarian
[36] = tested on: OVCAR-4 ovarian
[37] = tested on: OVCAR-5 ovarian
[38] = tested on: OVCAR-8 ovarian
[39] = tested on: PC-3 prostate
[40] = tested on: RPMI-8226 leukemia
[41] = tested on: RXF 393 renal
[42] = tested on: SF-268 CNS
[43] = tested on: SF-295 CNS
[44] = tested on: SF-539 CNS
[45] = tested on: SK-MEL-28 melanoma
[46] = tested on: SK-MEL-5 melanoma
[47] = tested on: SN12C renal
[48] = tested on: SNB-19 CNS
[49] = tested on: SNB-75 CNS
[50] = tested on: SR leukemia
[51] = tested on: SW-620 colon
[52] = tested on: T-47D breast
[53] = tested on: TK-10 renal
[54] = tested on: U251 CNS
[55] = tested on: UACC-257 melanoma
[56] = tested on: UO-31 renal

Measured: TGI

Cc1n[nH]c(=O)n1-c1cccnc1
> 100 µM: all assays above
